Test results: paper PMC9986241 (Signal Transduction and Targeted Therapy, 2023)
Values belong to the compound of their own block, whether it stands above or below them.

Experiments:
Test in all cases: KinaseProfiler enzyme profiling
Type in all cases: biochemical
[1] = molecular target: T1, B-Raf(V599E)(h) (Homo sapiens, UniProt P15056, V600E)
T1 construct: purchased Eurofins KinaseProfiler
Procedure: (§1) Enzyme profiling services were provided by KinaseProfiler™ (Eurofin, Brussels, Belgium). The concentration of erianin was 100 nM, and total 70 kinases were tested in this in vitro screening and profiling services (2 repetitions). For more details, refer to the manufacturer’s instructions (www.eurofinsdiscoveryservices.com).

[2] = molecular target: T2, B-Raf(h) (Homo sapiens, UniProt P15056)
T2 construct: purchased Eurofins KinaseProfiler
Procedure: as §1

[3] = molecular target: T3, CDK2/cyclinA(h) (Homo sapiens, UniProt P24941)
T3 construct: purchased Eurofins KinaseProfiler
Procedure: as §1

[4] = molecular target: T4, CDK3/cyclinE(h) (Homo sapiens, UniProt Q00526)
T4 construct: purchased Eurofins KinaseProfiler
Procedure: as §1

[5] = molecular target: T5, CDK6/cyclinD3(h) (Homo sapiens, UniProt Q00534)
T5 construct: purchased Eurofins KinaseProfiler
Procedure: as §1

[6] = molecular target: T6, CDK9/cyclin T1(h) (Homo sapiens, UniProt P50750)
T6 construct: purchased Eurofins KinaseProfiler
Procedure: as §1

[7] = molecular target: T7, CaMKIV(h) (Homo sapiens, UniProt Q16566)
T7 construct: purchased Eurofins KinaseProfiler
Procedure: as §1

[8] = molecular target: T8, EGFR(T790M,L858R)(h) (Homo sapiens, UniProt P00533, L858R/T790M)
T8 construct: purchased Eurofins KinaseProfiler
Procedure: as §1

[9] = molecular target: T9, EGFR(h) (Homo sapiens, UniProt P00533)
T9 construct: purchased Eurofins KinaseProfiler
Procedure: as §1

[10] = molecular target: T10, EphB4(h) (Homo sapiens, UniProt P54760)
T10 construct: purchased Eurofins KinaseProfiler
Procedure: as §1

[11] = molecular target: T11, FGFR1(h) (Homo sapiens, UniProt P11362)
T11 construct: purchased Eurofins KinaseProfiler
Procedure: as §1

[12] = molecular target: T12, IKKα(h) (Homo sapiens, UniProt O15111)
T12 construct: purchased Eurofins KinaseProfiler
T12 sequence (O15111 1-745): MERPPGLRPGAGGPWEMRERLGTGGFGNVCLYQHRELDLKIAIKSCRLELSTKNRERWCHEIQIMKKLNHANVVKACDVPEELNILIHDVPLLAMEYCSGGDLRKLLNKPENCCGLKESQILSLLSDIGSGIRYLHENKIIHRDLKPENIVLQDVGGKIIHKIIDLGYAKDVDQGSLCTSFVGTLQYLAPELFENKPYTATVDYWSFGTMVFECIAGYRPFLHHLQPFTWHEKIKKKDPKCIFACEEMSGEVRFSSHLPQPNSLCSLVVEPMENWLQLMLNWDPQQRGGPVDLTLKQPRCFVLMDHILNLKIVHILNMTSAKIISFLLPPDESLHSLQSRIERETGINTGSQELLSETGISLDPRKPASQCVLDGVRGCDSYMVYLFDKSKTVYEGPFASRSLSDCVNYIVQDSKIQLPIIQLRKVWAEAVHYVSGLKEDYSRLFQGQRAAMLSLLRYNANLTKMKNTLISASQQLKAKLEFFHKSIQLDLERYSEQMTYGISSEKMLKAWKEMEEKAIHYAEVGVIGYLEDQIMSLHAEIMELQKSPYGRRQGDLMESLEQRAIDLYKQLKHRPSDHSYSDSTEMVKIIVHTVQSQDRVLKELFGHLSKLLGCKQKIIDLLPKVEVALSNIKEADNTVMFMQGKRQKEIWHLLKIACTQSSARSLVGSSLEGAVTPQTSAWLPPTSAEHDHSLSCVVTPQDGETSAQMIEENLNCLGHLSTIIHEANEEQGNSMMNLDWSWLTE
Procedure: as §1

[13] = molecular target: T13, JAK1(h) (Homo sapiens, UniProt P23458)
T13 construct: purchased Eurofins KinaseProfiler
Procedure: as §1

[14] = molecular target: T14, MAPK1(h) (Homo sapiens, UniProt P27361)
T14 construct: purchased Eurofins KinaseProfiler
Procedure: as §1

[15] = molecular target: T15, MAPK2(h) (Homo sapiens, UniProt P28482)
T15 construct: purchased Eurofins KinaseProfiler
Procedure: as §1

[16] = molecular target: T16, MEK1(h) (Homo sapiens, UniProt Q02750)
T16 construct: purchased Eurofins KinaseProfiler
Procedure: as §1

[17] = molecular target: T17, MSK2(h) (Homo sapiens, UniProt O75676)
T17 construct: purchased Eurofins KinaseProfiler
Procedure: as §1

[18] = molecular target: T18, MST3(h) (Homo sapiens, UniProt Q9Y6E0)
T18 construct: purchased Eurofins KinaseProfiler
Procedure: as §1

[19] = molecular target: T19, PAK1(h) (Homo sapiens, UniProt Q13153)
T19 construct: purchased Eurofins KinaseProfiler
Procedure: as §1

[20] = molecular target: T20, PAK2(h) (Homo sapiens, UniProt Q13177)
T20 construct: purchased Eurofins KinaseProfiler
Procedure: as §1

[21] = molecular target: T21, PAK4(h) (Homo sapiens, UniProt O96013)
T21 construct: purchased Eurofins KinaseProfiler
Procedure: as §1

[22] = molecular target: T22, c-RAF(h) (Homo sapiens, UniProt P04049)
T22 construct: purchased Eurofins KinaseProfiler
Procedure: as §1

[23] = molecular target: T23, cSRC(h) (Homo sapiens, UniProt P12931)
T23 construct: purchased Eurofins KinaseProfiler
Procedure: as §1

[24] = molecular target: T24, AMPKα1(h) (Homo sapiens, UniProt Q13131)
T24 construct: purchased Eurofins KinaseProfiler
Procedure: as §1

[25] = molecular target: T25, AMPKα2(h) (Homo sapiens, UniProt P54646)
T25 construct: purchased Eurofins KinaseProfiler
Procedure: as §1

[26] = molecular target: T26, ATM(h) (Homo sapiens, UniProt Q13315)
T26 construct: purchased Eurofins KinaseProfiler
Procedure: as §1

[27] = molecular target: T27, JAK2(h) (Homo sapiens, UniProt O60674)
T27 construct: purchased Eurofins KinaseProfiler
Procedure: as §1

[28] = molecular target: T28, JNK2α2(h) (Homo sapiens, UniProt P45984)
T28 construct: purchased Eurofins KinaseProfiler
Procedure: as §1

[29] = molecular target: T29, PDGFRα(h) (Homo sapiens, UniProt P16234)
T29 construct: purchased Eurofins KinaseProfiler
Procedure: as §1

[30] = molecular target: T30, PKBβ(h) (Homo sapiens, UniProt P31751)
T30 construct: purchased Eurofins KinaseProfiler
Procedure: as §1

[31] = molecular target: T31, SAPK4(h) (Homo sapiens, UniProt O15264)
T31 construct: purchased Eurofins KinaseProfiler
Procedure: as §1

[32] = molecular target: T32, mTOR(h) (Homo sapiens, UniProt P42345)
T32 construct: purchased Eurofins KinaseProfiler
Procedure: as §1

T16 sequence (Q02750 whole entry): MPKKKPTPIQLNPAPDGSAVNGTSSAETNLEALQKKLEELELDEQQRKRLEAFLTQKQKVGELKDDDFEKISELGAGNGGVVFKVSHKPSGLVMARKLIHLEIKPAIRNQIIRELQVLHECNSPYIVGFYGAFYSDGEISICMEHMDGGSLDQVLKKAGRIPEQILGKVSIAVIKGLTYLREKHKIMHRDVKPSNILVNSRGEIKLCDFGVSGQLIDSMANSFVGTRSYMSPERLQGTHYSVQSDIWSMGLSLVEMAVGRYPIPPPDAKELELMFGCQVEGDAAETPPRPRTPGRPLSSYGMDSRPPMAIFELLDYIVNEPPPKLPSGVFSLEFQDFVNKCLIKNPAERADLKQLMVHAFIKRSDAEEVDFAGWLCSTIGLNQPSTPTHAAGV
T21 sequence (O96013 whole entry): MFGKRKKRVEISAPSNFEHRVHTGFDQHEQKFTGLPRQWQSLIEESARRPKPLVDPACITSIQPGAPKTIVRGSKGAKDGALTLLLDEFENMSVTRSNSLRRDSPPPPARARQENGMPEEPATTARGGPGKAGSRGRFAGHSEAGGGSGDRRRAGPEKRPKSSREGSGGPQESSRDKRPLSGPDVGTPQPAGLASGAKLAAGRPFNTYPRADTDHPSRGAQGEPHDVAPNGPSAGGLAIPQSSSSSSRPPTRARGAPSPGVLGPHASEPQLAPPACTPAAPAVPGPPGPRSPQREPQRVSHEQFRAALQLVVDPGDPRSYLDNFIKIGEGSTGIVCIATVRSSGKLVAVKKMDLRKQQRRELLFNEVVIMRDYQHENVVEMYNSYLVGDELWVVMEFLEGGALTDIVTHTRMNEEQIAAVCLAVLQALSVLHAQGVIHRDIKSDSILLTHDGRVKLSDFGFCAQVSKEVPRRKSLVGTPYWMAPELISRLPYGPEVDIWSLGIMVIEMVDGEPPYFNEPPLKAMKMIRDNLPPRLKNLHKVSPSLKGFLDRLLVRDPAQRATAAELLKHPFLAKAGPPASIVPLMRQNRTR
T14 sequence (P27361 whole entry): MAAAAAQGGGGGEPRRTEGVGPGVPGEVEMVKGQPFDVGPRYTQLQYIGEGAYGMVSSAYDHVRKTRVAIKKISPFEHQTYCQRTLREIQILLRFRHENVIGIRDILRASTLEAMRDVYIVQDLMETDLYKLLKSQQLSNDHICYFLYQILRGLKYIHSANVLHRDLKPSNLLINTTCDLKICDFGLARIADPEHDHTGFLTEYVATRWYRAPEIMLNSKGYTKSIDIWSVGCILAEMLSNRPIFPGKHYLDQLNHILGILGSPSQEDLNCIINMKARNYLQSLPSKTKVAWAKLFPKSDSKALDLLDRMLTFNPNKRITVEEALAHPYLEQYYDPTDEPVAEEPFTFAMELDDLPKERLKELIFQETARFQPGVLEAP
T6 sequence (P50750 whole entry): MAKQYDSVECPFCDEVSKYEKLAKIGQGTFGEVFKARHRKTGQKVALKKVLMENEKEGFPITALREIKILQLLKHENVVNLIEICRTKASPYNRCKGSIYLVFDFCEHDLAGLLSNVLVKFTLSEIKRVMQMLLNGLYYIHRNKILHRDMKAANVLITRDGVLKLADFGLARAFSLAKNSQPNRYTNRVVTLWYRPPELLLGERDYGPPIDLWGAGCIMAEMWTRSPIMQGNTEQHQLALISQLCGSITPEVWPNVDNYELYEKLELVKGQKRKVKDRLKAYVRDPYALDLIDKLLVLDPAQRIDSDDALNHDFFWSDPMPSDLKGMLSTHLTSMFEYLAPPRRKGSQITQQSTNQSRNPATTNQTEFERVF
T6 sequence (O60563 whole entry partner): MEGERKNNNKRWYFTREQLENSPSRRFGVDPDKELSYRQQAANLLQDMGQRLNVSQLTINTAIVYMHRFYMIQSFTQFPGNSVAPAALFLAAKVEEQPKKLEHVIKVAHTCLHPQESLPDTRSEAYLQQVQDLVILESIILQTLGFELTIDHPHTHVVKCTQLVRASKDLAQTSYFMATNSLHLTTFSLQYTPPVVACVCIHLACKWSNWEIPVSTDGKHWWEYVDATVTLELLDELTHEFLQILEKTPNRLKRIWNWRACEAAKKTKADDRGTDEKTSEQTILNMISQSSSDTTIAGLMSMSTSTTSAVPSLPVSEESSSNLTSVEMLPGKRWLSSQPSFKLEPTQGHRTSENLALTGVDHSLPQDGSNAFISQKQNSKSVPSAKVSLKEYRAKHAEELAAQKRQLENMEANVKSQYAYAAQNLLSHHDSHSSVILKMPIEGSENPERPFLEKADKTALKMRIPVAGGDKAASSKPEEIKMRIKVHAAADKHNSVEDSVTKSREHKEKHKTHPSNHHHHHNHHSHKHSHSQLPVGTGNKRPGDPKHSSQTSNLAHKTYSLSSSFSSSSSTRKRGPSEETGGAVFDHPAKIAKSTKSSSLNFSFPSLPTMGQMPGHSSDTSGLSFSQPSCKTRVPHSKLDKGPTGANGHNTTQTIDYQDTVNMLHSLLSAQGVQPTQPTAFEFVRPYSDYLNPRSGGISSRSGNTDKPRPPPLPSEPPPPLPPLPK
T20 sequence (Q13177 whole entry): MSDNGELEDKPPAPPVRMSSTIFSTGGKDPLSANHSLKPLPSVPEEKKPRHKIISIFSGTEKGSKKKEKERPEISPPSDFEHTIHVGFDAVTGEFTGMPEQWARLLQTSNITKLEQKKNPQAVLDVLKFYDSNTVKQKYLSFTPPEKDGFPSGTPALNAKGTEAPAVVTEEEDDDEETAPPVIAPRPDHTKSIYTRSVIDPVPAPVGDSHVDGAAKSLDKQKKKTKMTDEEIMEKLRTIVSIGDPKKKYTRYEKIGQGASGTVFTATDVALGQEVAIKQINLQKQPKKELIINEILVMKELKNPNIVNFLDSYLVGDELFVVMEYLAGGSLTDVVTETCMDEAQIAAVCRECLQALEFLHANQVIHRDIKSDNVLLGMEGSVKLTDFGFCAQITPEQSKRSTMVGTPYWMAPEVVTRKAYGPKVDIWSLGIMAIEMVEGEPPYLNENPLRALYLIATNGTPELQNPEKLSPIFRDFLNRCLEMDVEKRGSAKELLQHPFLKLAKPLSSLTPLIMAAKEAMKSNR
T19 sequence (Q13153 whole entry): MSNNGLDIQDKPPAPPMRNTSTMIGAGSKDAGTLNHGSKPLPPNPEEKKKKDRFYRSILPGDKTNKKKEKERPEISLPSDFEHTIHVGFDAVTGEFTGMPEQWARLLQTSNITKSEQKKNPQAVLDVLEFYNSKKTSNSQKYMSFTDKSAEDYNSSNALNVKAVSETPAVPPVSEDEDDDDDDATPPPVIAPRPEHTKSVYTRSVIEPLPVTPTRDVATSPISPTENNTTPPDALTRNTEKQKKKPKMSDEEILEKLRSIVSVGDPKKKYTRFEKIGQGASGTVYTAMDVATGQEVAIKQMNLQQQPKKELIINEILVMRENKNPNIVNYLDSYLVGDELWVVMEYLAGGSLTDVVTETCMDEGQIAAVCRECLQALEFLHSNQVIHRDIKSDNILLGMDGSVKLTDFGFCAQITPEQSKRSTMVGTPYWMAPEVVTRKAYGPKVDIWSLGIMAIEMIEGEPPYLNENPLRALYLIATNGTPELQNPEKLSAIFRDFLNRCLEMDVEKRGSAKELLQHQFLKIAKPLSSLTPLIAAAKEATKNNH
T13 sequence (P23458 whole entry): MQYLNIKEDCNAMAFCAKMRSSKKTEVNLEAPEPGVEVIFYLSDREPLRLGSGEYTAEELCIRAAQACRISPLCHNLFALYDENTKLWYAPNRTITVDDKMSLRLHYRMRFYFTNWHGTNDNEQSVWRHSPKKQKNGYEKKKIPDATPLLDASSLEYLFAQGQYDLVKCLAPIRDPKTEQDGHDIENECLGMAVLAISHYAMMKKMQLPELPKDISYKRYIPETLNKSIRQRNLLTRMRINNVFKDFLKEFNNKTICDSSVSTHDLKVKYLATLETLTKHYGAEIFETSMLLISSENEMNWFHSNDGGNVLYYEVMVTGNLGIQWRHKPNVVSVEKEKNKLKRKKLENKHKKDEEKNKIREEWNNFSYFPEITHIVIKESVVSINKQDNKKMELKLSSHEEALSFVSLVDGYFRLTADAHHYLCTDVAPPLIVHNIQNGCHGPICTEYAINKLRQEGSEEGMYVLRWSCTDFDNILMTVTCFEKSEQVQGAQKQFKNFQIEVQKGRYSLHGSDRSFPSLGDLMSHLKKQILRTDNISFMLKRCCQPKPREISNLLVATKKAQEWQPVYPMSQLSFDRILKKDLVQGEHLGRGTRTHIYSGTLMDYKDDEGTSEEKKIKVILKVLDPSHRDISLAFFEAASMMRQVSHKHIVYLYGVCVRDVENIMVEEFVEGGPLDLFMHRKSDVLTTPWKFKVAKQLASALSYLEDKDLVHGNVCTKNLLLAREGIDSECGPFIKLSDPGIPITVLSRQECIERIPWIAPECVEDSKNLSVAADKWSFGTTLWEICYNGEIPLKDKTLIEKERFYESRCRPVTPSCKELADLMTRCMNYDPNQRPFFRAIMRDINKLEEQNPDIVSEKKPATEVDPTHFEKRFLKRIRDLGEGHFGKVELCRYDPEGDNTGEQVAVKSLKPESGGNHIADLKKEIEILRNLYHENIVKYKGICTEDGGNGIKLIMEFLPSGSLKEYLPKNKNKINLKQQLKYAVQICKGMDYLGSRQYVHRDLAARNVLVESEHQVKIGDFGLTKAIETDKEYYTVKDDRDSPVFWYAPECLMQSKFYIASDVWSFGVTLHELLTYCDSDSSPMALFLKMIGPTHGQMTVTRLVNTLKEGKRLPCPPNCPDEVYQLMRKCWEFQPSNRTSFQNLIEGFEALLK

- activity at 10 µM ([1]; 10 µM): 106%
- activity at 10 µM ([2]; 10 µM): 104%
- activity at 10 µM [3]: 91%
- activity at 10 µM [4]: 97%
- activity at 10 µM [5]: 101%
- activity at 10 µM [6]: 98%
- activity at 10 µM ([7]; 10 µM): 93%
- activity at 10 µM ([8]; 10 µM): 101%
- activity at 10 µM [9]: 98%
- activity at 10 µM ([10]; 10 µM): 86%
- activity at 10 µM ([11]; 10 µM): 103%
- activity at 10 µM [12]: 102%
- activity at 10 µM [13]: 99%
- activity at 10 µM [14]: 103%
- activity at 10 µM [15]: 114%
- activity at 10 µM [16]: 105%
- activity at 10 µM [17]: 108%
- activity at 10 µM [18]: 103%
- activity at 10 µM [19]: 104%
- activity at 10 µM [20]: 111%
- activity at 10 µM [21]: 104%
- activity at 10 µM ([22]; 10 µM): 104%
- activity at 10 µM [23]: 133%
Structure (SMILES): COc1cc2oc(-c3ccc(O)c(O)c3)cc(=O)c2c(O)c1OC [Cirsiliol]

Structure (SMILES): COc1ccc(CCc2cc(OC)c(OC)c(OC)c2)cc1O [Erianin]
- activity at 0.1 µM [24]: 108%
- activity at 0.1 µM [25]: 118%
- activity at 0.1 µM [26]: 111%
- activity at 0.1 µM [1]: 109%
- activity at 0.1 µM [2]: 103%
- activity at 0.1 µM [3]: 94%
- activity at 0.1 µM [6]: 97%
- activity at 0.1 µM [7]: 91%
- activity at 0.1 µM [8]: 120%
- activity at 0.1 µM [9]: 105%
- activity at 0.1 µM [10]: 108%
- activity at 0.1 µM [11]: 118%
- activity at 0.1 µM [12]: 108%
- activity at 0.1 µM [13]: 117%
- activity at 0.1 µM [27]: 107%
- activity at 0.1 µM [28]: 91%
- activity at 0.1 µM [14]: 92%
- activity at 0.1 µM [15]: 104%
- activity at 0.1 µM [16]: 99%
- activity at 0.1 µM [19]: 109%
- activity at 0.1 µM [20]: 107%
- activity at 0.1 µM [21]: 93%
- activity at 0.1 µM [29]: 91%
- activity at 0.1 µM [30]: 97%
- activity at 0.1 µM [31]: 103%
- activity at 0.1 µM [22]: 85%
- activity at 0.1 µM [32]: 104%

- activity at 10 µM ([24]; 10 µM): 75%
- activity at 10 µM ([25]; 10 µM): 72%
- activity at 10 µM ([26]; 10 µM): 71%
- activity at 10 µM [3]: 67%
- activity at 10 µM [4]: 70%
- activity at 10 µM [5]: 69%
- activity at 10 µM [6]: 59%
- activity at 10 µM [9]: 91%
- activity at 10 µM [12]: 80%
- activity at 10 µM [13]: 75%
- activity at 10 µM ([27]; 10 µM): 90%
- activity at 10 µM ([28]; 10 µM): 115%
- activity at 10 µM [14]: 63%
- activity at 10 µM [15]: 82%
- activity at 10 µM [16]: 92%
- activity at 10 µM [17]: 69%
- activity at 10 µM [18]: 74%
- activity at 10 µM [19]: 110%
- activity at 10 µM [20]: 99%
- activity at 10 µM [21]: 86%
- activity at 10 µM ([29]; 10 µM): 71%
- activity at 10 µM ([30]; 10 µM): 106%
- activity at 10 µM ([31]; 10 µM): 106%
- activity at 10 µM [23]: 59%
- activity at 10 µM ([32]; 10 µM): 81%
Structure (SMILES): C=C1C(=O)[C@]23[C@H](O)[C@H]1CC[C@H]2[C@@]12CO[C@]3(O)[C@@H](O)[C@@H]1C(C)(C)CC[C@@H]2O [Oridonin]
